{"source": "patent US9439899B2", "about": "“Cancer therapy using a combination of HSP90 inhibitors with topoisomerase I inhibitors” (Synta Pharmaceuticals Corp., priority 2011, dated 2016)", "tested_on": "HCT-116 colorectal cancer cells", "assay": "Cell viability (alamarBlue) assay, single agents and combinations, in HCT-116 colorectal cancer cells", "assay_type": "cell-based", "details": "Homo sapiens; HCT-116 cells exposed to drug for 72 hr; 1.5-fold serial dilution; four parameter logistic fit; read-out: half maximal inhibitory concentration (IC50), cell viability", "protocol": "Human HCT-116 colorectal cancer cells (CRC) were purchased from the American Type Culture Collection (Manassas, Va.) and grown in McCoy's 5a media (Sigma), following ATCC recommendations, in the presence of fetal bovine serum (10%), 2 mM L-glutamine and antibiotics (100 IU/ml penicillin and 100 μg/ml streptomycin, Sigma). Cells were maintained at 37° C., 5% CO2 atmosphere.\nCell viability was measured using the alamarBlue assay (Invitrogen). In brief, cells were plated in 96-well plates in triplicate at 5K cells per well and incubated at 37° C., 5% CO2 atmosphere for 24 hr prior to the addition of drug or vehicle (0.3% DMSO) to the culture medium. After 72 hr, 10 μl/well alamarBlue was added to the wells and incubated for an additional 3 hr at 37° C., 5% CO2 atmosphere. Fluorescence (560EX/590EM […]) was measured with a SpectraMax microplate reader (Molecular Devices) and the resulting data were used to calculate cell viability, normalized to vehicle control. […]\nCombinations between ganetespib and irinotecan were then performed in HCT-116 cells concurrently based on the IC50 for each agent in matrix format with 54 combination pairs for each drug. The combined drugs, as well as each drug alone, were incubated with the cells for 3 days and the surviving fraction of cells relative to control was determined using the alamarBlue assay.", "note": "pIC50: −log10 of the molar value.", "data": [{"molecule": "CC(C)c1cc(-c2nnc(O)n2-c2ccc3c(ccn3C)c2)c(O)cc1O", "note": "[ganetespib, 3-(2,4-DIHYDROXY-5- ISOPROPYL-PHENYL)-4-(1- METHYL-INDOL-5-YL)-5- HYDROXY-[1,2,4] TRIAZOLE]", "values": [{"measurement": "pIC50", "result": "~7.49"}]}, {"molecule": "CCc1c2c(nc3ccc(OC(=O)N4CCC(N5CCCCC5)CC4)cc13)-c1cc3c(c(=O)n1C2)COC(=O)[C@]3(O)CC", "note": "[irinotecan]", "values": [{"measurement": "pIC50", "result": "~5.64"}]}]}
